The target of one assay is T1, hP2X (Homo sapiens, UniProt P51575).
T1 construct: expressed in transfected cells; host or cells: Xenopus oocytes injected with in vitro transcribed RNA
T1 sequence (P51575 1-399): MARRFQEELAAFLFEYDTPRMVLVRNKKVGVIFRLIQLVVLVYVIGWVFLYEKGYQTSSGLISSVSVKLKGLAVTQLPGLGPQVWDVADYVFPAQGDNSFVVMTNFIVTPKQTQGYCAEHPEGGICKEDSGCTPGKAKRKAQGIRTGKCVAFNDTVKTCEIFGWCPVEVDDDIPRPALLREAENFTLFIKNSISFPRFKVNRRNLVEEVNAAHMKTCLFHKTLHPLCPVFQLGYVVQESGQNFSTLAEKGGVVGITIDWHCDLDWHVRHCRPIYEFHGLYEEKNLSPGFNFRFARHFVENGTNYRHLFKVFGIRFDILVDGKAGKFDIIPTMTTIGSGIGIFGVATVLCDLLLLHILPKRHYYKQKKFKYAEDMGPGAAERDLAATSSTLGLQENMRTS
The assay can be described thus: inward currents evoked by purinoceptor agonists in Xenopus oocytes expressing hP2X. Type of assay: cell-based. The note with it: for full agonist activity: concentration-response curves; for agonist profile (rank order): oocytes expressing hP2X; for relative potency: relative to ATP, from EEC50. The method, then: Human urinary bladder P2X cDNA, subcloned into the pBKCMV expression vector, was linearized with Notl, and transcribed in vitro with T3 polymerase in the presence of cap analogue m7G(5')ppp(5')G. Defolliculated Xenopus oocytes (Bertrand et al, Electrophysiology of neuronal nicotinic acetylcholine receptors expressed in Xenopus oocytes following nuclear injection of genes or cDNAs Meth Neurosci 4: 174-193 (1991)) were injected with 50 ng of human P2X in vitro transcribed RNA, and incubated at 18° C. for 2-6 days in the ND96 solution (mM): NaCl96, KCl2, MgCl2 1, CaCl2 2, sodium pyruvate 5, HEPES 5, ph 7.6-7.5, penicillin (10 U/ml), and streptomycin (10 μg/ml).
Oocytes were placed in a 1 ml chamber and superfused at 2-3 ml/min with ND96 solution with 0.1 mM BaCl2 replacing the 2 mM CaCl2 to prevent activation of endogenous calcium-activated chloride currents (Barish, A transient calcium-dependent chloride current in the immature Xenopus oocytes J Physiol 342: 309-325 (1983)). Currents were measured using a two-electrode voltage-clamp amplifier (Geneclamp Axon Instruments)at a holding potential of -60 mV. Microelectrodes were filled with 3 M KCl (0.5-2 M.OMEGA.). Data were collected using PClamp software (Axon Instruments). […] Antagonists were applied both in the superfusate and together with ATP in the U-tube solution.
Concentration response curves for purinoceptor agonists were fitted with a Hill slope of 1. […] Data are presented throughout as mean ± SEM for a given number of oocytes.

Another assay deals with P2X-purinoceptor. The note with it: cited from earlier work.
A further assay has as its system P2X mRNA. The note with it: rat, RP2 mRNA; cited from earlier work.
Assay [1] addresses T2, rat superior cervical ganglion P2X receptor (clone 3) (Rattus norvegicus, UniProt P51577).
T2 construct: The insert appeared to be a full length cDNA; expressed in transfected cells; host or cells: HEK293 cells transfected with pcDNA3 construct p464 (also oocytes injected with in vitro transcribed RNA)
T2 sequence (P51577 1-388): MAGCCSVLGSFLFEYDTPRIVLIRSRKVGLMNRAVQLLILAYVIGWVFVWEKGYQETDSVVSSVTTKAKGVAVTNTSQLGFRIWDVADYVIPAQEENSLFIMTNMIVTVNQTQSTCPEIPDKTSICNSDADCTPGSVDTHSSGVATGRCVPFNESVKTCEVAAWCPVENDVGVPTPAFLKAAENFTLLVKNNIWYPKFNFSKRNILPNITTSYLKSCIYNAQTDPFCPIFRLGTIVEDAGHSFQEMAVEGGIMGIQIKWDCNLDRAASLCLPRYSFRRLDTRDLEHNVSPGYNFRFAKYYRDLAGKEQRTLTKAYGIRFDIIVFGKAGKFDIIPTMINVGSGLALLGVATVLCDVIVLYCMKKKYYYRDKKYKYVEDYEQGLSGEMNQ
The assay can be described thus: functional properties of cloned P2X receptors (electrical recordings): clone 3. Type of assay: cell-based. The method, then:
(§1) HEK 293 cells were transfected by the lipofectin method (Felgner et al., Proc. Nat'l. Acad. Sci. USA 84 7413-7417 (1987)) with P2X -plasmid. DNA concentration used was 1 mg/2 ml medium placed into a 35 mm petri dish containing four 11 mm diameter coverslips on which HEK cells were placed at 10,000 cells per coverslip. […] Currents were recorded from HEK 293 cells using whole-cell recording methods and the AXOPATCH™ 200 amplifier (Axon Instruments); patch pipettes (5 M.OMEGA.) contained (mM) Cs or K aspartate 140, NaCl 5, EGTA 11, HEPES 5. The external solution was (mM) NaCl 150, KCl2, CaCl2 2, MgCl2 1, HEPES 5 and glucose 11; the pH and osmolarity of both solutions were maintained at 7.3 and 305 mosmol/l respectively. All recordings performed at room temperature. Data acquisition and analysis were performed using pCLAMP™ and AXOGRAPH™ software (Axon Instruments). […] The pH and osmolarity of the solutions were 7.4 and 295 mosmol/l respectively. For single channel measurements, a […]™ 500 amplifier and outside-out recording methods were used (Adelman et al., Neuron 9 209-216 (1992)). Wax-coated patch pipettes (5-10 M.OMEGA.) contained (mM) K-gluconate 115, HEPES 5, BAPTA 5 and MgCl2 0.5, external solution was 96 mM NaCl, 2 mM KCl, 1.8 mM CaCl2, 1 mM MgCl2, 5 mM Hepes pH 7.6, and 5 mM sodium pyruvate.
(§2) The functional characterisation of the clone illustrated in FIG. 2 (referred to herein as clone 3) was carried out by electrical recordings from transfected HEK293 cells and from oocytes injected with the in vitro transcribed RNA, as described in Example 4 for the rat vas deferens P2X receptor. Table A summarizes the main properties of clone 3 as compared to those of rat vas/human bladder cDNA clone, and the PC12 cDNA clone (provided by David Julius and Tony Brake of the University of California at San Francisco).

For a further assay, the target named is T3, PC12 P2X receptor (Rattus norvegicus, UniProt P49653).
T3 construct: host or cells: HEK293 cells (oocytes are also named for the functional characterisation of clone 3)
T3 sequence (P49653 1-472): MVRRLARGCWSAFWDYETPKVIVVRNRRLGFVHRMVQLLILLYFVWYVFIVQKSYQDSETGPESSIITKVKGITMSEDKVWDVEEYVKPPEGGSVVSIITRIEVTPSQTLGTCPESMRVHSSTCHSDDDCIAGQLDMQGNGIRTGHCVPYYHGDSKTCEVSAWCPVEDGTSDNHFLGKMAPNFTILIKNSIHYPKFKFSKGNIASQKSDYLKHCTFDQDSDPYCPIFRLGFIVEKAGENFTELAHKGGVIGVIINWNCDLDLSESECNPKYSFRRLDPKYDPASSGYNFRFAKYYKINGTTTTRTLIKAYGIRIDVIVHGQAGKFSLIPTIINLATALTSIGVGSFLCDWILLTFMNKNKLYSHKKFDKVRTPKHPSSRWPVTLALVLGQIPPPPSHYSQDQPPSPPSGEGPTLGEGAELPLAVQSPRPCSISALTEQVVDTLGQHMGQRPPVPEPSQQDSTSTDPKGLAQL
The assay can be described thus: functional properties of cloned P2X receptors (electrical recordings): PC12. Type of assay: cell-based. The procedure: as §1, §2

A further assay concerns P2-purinoceptor. Conditions: reported previously for suramin; cited from earlier work.
The next assay has as its system mouse vas deferens. Conditions: cited from earlier work.
Assay [2] deals with T4, rat vas/human bladder P2X cDNA clone (Homo sapiens, UniProt P51575).
T4 construct: expressed in transfected cells; host or cells: HEK293 cells (oocytes are also named for the functional characterisation)
T4 sequence (P51575 1-399): T1 sequence (P51575 1-399)
Nature of the assay: functional properties of cloned P2X receptors (electrical recordings): bladder. Format: cell-based. Conditions: Table A, parameter (EC50) not given; read-out: agonist profile, bladder. The procedure: DNA concentration used was 1 mg/2 ml medium placed into a 35 mm petri dish containing four 11 mm diameter coverslips on which HEK cells were placed at 10,000 cells per coverslip. […] Currents were recorded from HEK 293 cells using whole-cell recording methods and the AXOPATCH™ 200 amplifier (Axon Instruments); patch pipettes (5 M.OMEGA.) contained (mM) Cs or K aspartate 140, NaCl 5, EGTA 11, HEPES 5. […] All recordings performed at room temperature. Data acquisition and analysis were performed using pCLAMP™ and AXOGRAPH™ software (Axon Instruments). […] ATP was applied by U-tube typically for 1 s; data was sampled at 5 kHz in 2 s segments beginning 300 ms prior to onset of agonist (ATP) application and filtered at 1 kHz.

Assay [3] deals with T5, rat vas deferens P2X receptor (Rattus norvegicus, UniProt P47824).
T5 construct: cRNA in Xenopus oocytes; stably transfected CHO cells
T5 sequence (P47824 1-399): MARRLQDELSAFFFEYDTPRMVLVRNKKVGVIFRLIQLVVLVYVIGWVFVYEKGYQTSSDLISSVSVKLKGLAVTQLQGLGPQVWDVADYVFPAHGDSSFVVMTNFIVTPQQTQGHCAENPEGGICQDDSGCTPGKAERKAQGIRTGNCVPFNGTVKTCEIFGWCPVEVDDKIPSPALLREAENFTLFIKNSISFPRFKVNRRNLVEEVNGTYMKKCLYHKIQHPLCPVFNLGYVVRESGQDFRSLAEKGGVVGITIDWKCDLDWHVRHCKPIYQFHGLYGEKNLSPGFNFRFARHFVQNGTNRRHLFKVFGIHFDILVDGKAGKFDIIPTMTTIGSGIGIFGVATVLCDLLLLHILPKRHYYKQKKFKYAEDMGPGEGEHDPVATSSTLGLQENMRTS
Nature of the assay: radioligand binding in CHO cells stably transfected with rat vas deferens P2X receptor. The text has this: CHO cells were stably transfected by a method used for other ion channels (Claudio, Meth. Enzymol. 207 391-408 (1992)). Transfection was confirmed by a) electro-physiological recording and b) radioligand binding. […] [^3 H]αβmethyleneATP binding was more than 600 cpm per million transfected cells with less than 80 cpm nonspecific binding.

Where a name gives a salt, the structure may show the parent alone.

For `CSc1nc(N)c2ncn([C@@H]3O[C@H](COP(=O)(O)OP(=O)(O)OP(=O)(O)O)[C@@H](O)[C@H]3O)c2n1` [2MeSATP, 2-MethylthioATP tetra sodium salt], at hP2X, the EC50 was 0.6 ± 0.1 µM, the full agonist activity entry is “full agonists”, the “agonist profile (rank order)” value was 2MeSATP≥ATP>α,β,-meATP and the relative potency worked out at 1.36. Besides, at hP2X (ATP, 2MeSATP and 2-chloro-ATP), the “comparison of concentration-effect curves” value is on record as “superimposable”. The “agonist potency order in whole tissue studies” value with P2X-purinoceptor was “α,β,-meATP >>2MeSATP≥ATP”.
As for `C[C@@H]1C[C@H]2[C@@H]3CCC4=CC(=O)C=C[C@]4(C)[C@@]3(F)[C@@H](O)C[C@]2(C)[C@@]1(O)C(=O)CO` [dexamethasone], the “induction of P2X mRNA in immature thymocytes” value in the assay with P2X mRNA is given as “can be induced in immature thymocytes by dexamethasone”.
A word on the IC50: it is the concentration at which inhibition is half-maximal. A lower IC50 goes with greater potency. By pA2 is commonly meant a measure of antagonist potency on a negative log scale. The pKB is the KB on a negative log10 scale, so that one unit is a factor of ten. Consider `Cc1ccc(C(=O)Nc2ccc(S(=O)(=O)O)c3cc(S(=O)(=O)O)cc(S(=O)(=O)O)c23)cc1NC(=O)c1cccc(NC(=O)Nc2cccc(C(=O)Nc3cc(C(=O)Nc4ccc(S(=O)(=O)O)c5cc(S(=O)(=O)O)cc(S(=O)(=O)O)c45)ccc3C)c2)c1` [suramin], for which, in [1] (Table A, concentration not given), the “antagonist profile, clone 3 (block)” value was below 40%. Further, the “sensitivity of ATP-activated currents to antagonism, compared with rat vas deferens/human bladder and PC12 forms” value in assay [1] (clone 3 (FIG. 15)) is “much less sensitive to antagonism”. The compound also registered an IC50 on PC12 P2X receptor of 6 µM. The pA2 in the assay with P2-purinoceptor is on record as 5.9. The pKB in the assay with mouse vas deferens is given as 5.2.
Regarding `Nc1ncnc2c1ncn2[C@@H]1O[C@H](COP(=O)(O)CP(=O)(O)OP(=O)(O)O)[C@@H](O)[C@H]1O` [α,β-meATP, α,β-methylene ATP lithium salt], at hP2X, the EC50 worked out at 3.6 ± 1.6 µM, the full agonist activity entry is given as “full agonists”, the “agonist profile (rank order)” value is 2MeSATP≥ATP>α,β,-meATP and the relative potency is on record as 0.23. Further, the EC50 in assay [2] is 3 µM. The EC50 in assay [1] (Table A, parameter (EC50) not given, read-out: agonist profile, clone 3) was above 100 µM. Moreover, the agonist action entry in [1] (clone 3 (FIG. 14)) is “little or no agonist action”. On PC12 P2X receptor (Table A, parameter (EC50) not given, read-out: agonist profile, PC12), the EC50 was above 100 µM. Moreover, in the assay with P2X-purinoceptor, the “agonist potency order in whole tissue studies” value was “α,β,-meATP >>2MeSATP≥ATP”.
Regarding [^3 H]αβmethyleneATP, in assay [3], the binding result is recorded as “more than 600 cpm per million transfected cells” and the nonspecific binding result is reported as “less than 80 cpm”.

Source of the values: US5985603A, “P2x receptor DNA and protein sequence” (Glaxo Group Limited, priority 1994, dated 1999).
